Experimental data taken from patent publication US6340581B1, “Biological production of products from waste gases” (Bioengineering Resources, Inc., priority 1992, dated 2002).
Where two headings read alike, the source gives them in different places.

Experiments:
[1] = Acetic acid distribution coefficient study: solvents for recovering acetic acid from the permeate; type: physicochemical
[2] = Distribution coefficients of mixed solvents; type: physicochemical; settings: oleyl alcohol 10 cc plus Cyc or TBP
[3] = aqueous phase after contact with the solvent

Equilibrium Aqueous Acetic Acid Concentration [1, 3] [g/L] | Acetic Acid Distribution Coefficients ([1]; solvent vs aqueous phase) | Distribution Coefficients [2] | Molecule | Acetic Acid Distribution Coefficients [1] | Equilibrium Aqueous Acetic Acid Concentration [1] [g/L]
4.654 | 0.13 | – | CCCCCCCCCCCC [Dodecane] | – | –
5.787 | 0.15 | – | CCCCCCCCCCCCOC(C)=O [Dodecyl acetate] | – | –
4.550 | 0.41 | – | CCOC(C)=O [Ethyl acetate] | – | –
4.665 | 0.42 | – | CCCC(=O)OCC [Ethyl butyrate] | – | –
5.866 | 1.13 | – | CCCCCCCCCCCCCCCC [Hexadecane] | – | –
4.358 | 0.45 | – | CCCCCCCCO [Octanol] | – | –
5.114 | 0.28 | 0.17 | CCCCCCCC/C=C\CCCCCCCCO [Oleyl alcohol] | – | –
3.785 | 0.31 | – | CCCCCCCCN(CCCCCCCC)CCCCCCCC [Trioctylamine] | – | –
4.528 | 0.40 | – | CCCCCCCCCCCO [Undecyl alcohol] | – | –
3.890 | 0.42 | – | Dexyl alcohol | – | –

Continued, molecule first:

Molecule | Equilibrium Aqueous Acetic Acid Concentration [1, 3] [g/L] | Acetic Acid Distribution Coefficients ([1]; solvent vs aqueous phase) | Distribution Coefficients [2] | Acetic Acid Distribution Coefficients [1] | Equilibrium Aqueous Acetic Acid Concentration [1] [g/L]
CCCCC(CC)CO (centres unmarked) [2-ethyl-1-hexanol] | 3.308 | 0.77 | – | – | –
CC1CCCC(O)C1 (centres unmarked) [3-methylcyclohexanol] | 2.110 | 1.26 | – | – | –
ClC(Cl)Cl [Chloroform] | – | – | – | 0.09 | 5.128
O=C1CCCCC1 [Cyclohexanone] | 2.702 | 1.66 | – | – | –
CCCCCCCCCC [Decane] | 5.968 | 0.08 | – | – | –
CCCCOP(=O)(O)OCCCC [Dibutyl phosphate] | – | – | – | 0.18 | 4.615
CCCCCC [Hexane] | – | – | – | 0.0 | 6.559
